Source: paper PMC9181887, “In Vitro Antithrombotic, Hematological Toxicity, and Inhibitor Studies of Protocatechuic, Isovanillic, and p-Hydroxybenzoic Acids from Maclura tricuspidata (Carr.) Bur” (Molecules, 2022)

System: human platelet-poor plasma
Assay: Recalcification time assay
Format: biochemical
Experimental: Figure 5 Effect of PA (A), IVA (B), and 4-HA (C) on recalcification time and plasma density. Human platelet-poor plasma was mixed with PA, IVA, and 4-HA dissolved in DMSO in 96-well plates and incubated for 10 min at 37 °C. Thereafter, 100 mM pre-warmed CaCl2 was added to the mixture and absorbance was taken every 60 s at 650 nm for 30 min in a microplate reader. The plasma density was presented as the optical density at 650 nm after 30 min. The half time (s) was presented as reaching a half-maximum absorbance value. NC1, plasma only; NC2, plasma treated with CaCl2; PC, positive control group (1 U heparin); PA1–20, 1–20 μg of PA treated; IVA1–20, 1–20 μg of IVA treated; 4-HA1–20, 1–20 μg of 4-HA treated.
Recalcification time was measured in a 96-well plate, according to a previously described method, with slight modifications. First, 50 μL of human platelet-poor plasma was mixed with 50 μL of the compounds, vehicle as NC2, or 1 U heparin as PC, and incubated at 37 °C for 10 min. Thereafter, 100 mM pre-warmed CaCl2 was added to the mixture and absorbance was measured at 650 nm every 1 min for 30 min using a microplate reader. The plasma density was presented as the absorbance at 650 nm after 30 min. The half time was presented as reaching a half-maximum absorbance value.

heparin [reference compound]
plasma coagulation for 1800 s (1U): completely delayed
Absorbance after Reaction (1 U heparin, 650 nm after 30 min, NC2 0.2094 ± 0.0305): 0.0184 ± 0.0016
